# Key:
# L1210 = test: In vitro cytotoxic activity against murine leukemia L1210 cells.; type: functional, cell-based; details: Mus musculus
# LoVo [1] = test: In vitro cytotoxic activity against human colon adenocarcinoma (LoVo) cells; type: functional, cell-based
# [2] = Resistance index was determined by ratio of cytotoxicities of human colon adenocarcinoma (LoVo) cells to human colon adenocarcinoma resistant to doxorubicin (LoVo Dx) cells.; type: functional
# LoVo [3] = test: In vitro cytotoxic activity against human colon adenocarcinoma resistant to doxorubicin (LoVo Dx) cells; type: functional, cell-based
# [4] = In vitro cytotoxic activity against sarcoma S-180 cells.; type: functional, cell-based; details: Mus musculus
# [5] = In vitro cytotoxic activity against sarcoma resistant to doxorubicin S-180 Dx cells.; type: functional, cell-based; details: Mus musculus
# LoVo [6] = test: In vitro cytotoxic activity against human colon adenocarcinoma resistant to doxorubicin (LoVo Dx) cells.; type: functional, cell-based
# LoVo [7] = test: In vitro cytotoxic activity against human colon adenocarcinoma (LoVo) cells.; type: functional, cell-based
Compound,IC50 (L1210) [µg/mL],IC50 (LoVo [1]) [µg/mL],Resistance index [2],IC50 (LoVo [3]) [µg/mL],IC50 [4] [µg/mL],IC50 [5] [µg/mL],IC50 (LoVo [6]) [µg/mL],IC50 (LoVo [7]) [µg/mL]
Cc1ccc2c3c(nn2CCN(C)C)-c2ccccc2Sc13,0.07,0.7,2.4,1.7,,,,
Cc1ccc2nn(CCN(C)C)c3c2c1Sc1ccccc1-3,0.25,,,,0.5,0.75,,
Cc1ccc2c3c(nn2CCN(C)C)-c2cnccc2Sc13,0.0006,,4.5,,0.003,0.009,0.018,0.004
Cc1ccc2c3c(nn2CCN(C)C)-c2cccnc2Sc13,0.08,,1.1,,0.46,0.62,3.3,3.1
O=C1c2c(O)ccc(O)c2C(=O)c2c(NCCNCCO)ccc(NCCNCCO)c21 [MITOXANTRONE],,0.023,27,,,,0.62,
Cc1ccc2nn(CCN(C)C)c3c2c1Sc1ncccc1-3,0.26,,,,0.3,0.33,,
Cc1ccc2nn(CCN(C)C)c3c2c1Sc1cnccc1-3,0.25,,,,0.35,0.4,,
COc1cccc2c1C(=O)c1c(O)c3c(c(O)c1C2=O)C[C@@](O)(C(=O)CO)C[C@@H]3O[C@H]1C[C@H](N)[C@H](O)[C@H](C)O1 [DOXORUBICIN],,0.52,97,,,,,
Cc1ccc2c3c(nn2CCN(C)C)-c2ccncc2Sc13,0.045,,1,,0.08,0.7,2.3,2.3
